Blank lines part the entries; values can stand above or below the molecule they belong to.
Key:
[1] = rat behavioral model; cited from earlier work
[2] = rats; cited from earlier work
Water solubility = assay type: physicochemical; conditions: statement in words

SMILES: CN1[C@@H](CC(=O)c2ccccc2)CCC[C@H]1C[C@H](O)c1ccccc1 [(−)-Lobeline]
rewarding effects of methamphetamine [1]: decrease

SMILES: COc1ccc(CC[C@H]2CCC[C@@H](CCc3ccc(OC)cc3)N2C[C@@H](O)CO)cc1 [Compound 3]
METH self-administration (SA) and reward [2]: blocked | responding for food [2]: no effect

water solubility (Water solubility): water-soluble
SMILES: COc1ccc(CC[C@@H]2CC[C@H](CCc3ccc(OC)cc3)N2C[C@@H](O)CO)cc1.Cl [Compound 11d]

water solubility (Water solubility): water-soluble
SMILES: Cl.OC[C@H](O)CN1[C@H](CCc2ccc(OC(F)F)cc2)CC[C@@H]1CCc1ccc(OC(F)F)cc1 [Compound 11f]

From publication PMC3725993 (Bioorganic & medicinal chemistry letters, 2013)
